In ChEMBL document CHEMBL6134920, “Novel Heterocyclic Pyrimidine Derivatives as GSK3α Inhibitors” (ACS Med Chem Lett, 2025):
pIC50: −log10 of the molar value.

Assay: Inhibition of Nanoluc-GSK2alpha (unknown origin) expressed in HEK293 cells measured after overnight incubation by NanoBRET- cellular assay
Conditions: Homo sapiens

Going from CCNCc1cncc(NC(=O)c2c(N)ncn(-c3c(Cl)cc(OCC)cc3Cl)c2=O)c1 to COCc1cc(Cl)c(-n2cnc(N)c(C(=O)Nc3cncc(C(N)COC)c3)c2=O)c(Cl)c1 (stereo unspecified), the pIC50 rises from 8.32 to 8.62 (0.30 log units). The second is the more potent here.

CNC(COC)c1cncc(NC(=O)c2c(N)ncn(-c3c(Cl)cc(COC)cc3Cl)c2=O)c1 (stereo unspecified) and COCC(N)c1cncc(NC(=O)c2c(N)ncn(-c3c(Cl)cc(C(F)F)cc3Cl)c2=O)c1 (stereo unspecified) are within 0.2 log units of each other in pIC50: 8.72 for the first, 8.55 for the second.

COCC(N)c1cncc(NC(=O)c2c(N)ncn(-c3c(Cl)cc(OC4CC4)cc3Cl)c2=O)c1 (stereo unspecified) and Nc1ncn(-c2c(Cl)cc(C(F)CF)cc2Cl)c(=O)c1C(=O)Nc1cncc([C@H]2CCCCN2)c1 (stereo partly specified) are within 0.2 log units of each other in pIC50: 8.62 for the first, 8.70 for the second.
